Where two headings read alike, the source gives them in different places. Starred links: 1 amine or outer side, 2 acyl side, 3 side chain; linkers in the order of their positions; H or OH if unused. Positions of bridges follow the written chain, without caps; N, C: chain ends. Non-standard residues stand in square brackets, D forms with d. Residues, ends and D or L forms follow the SMILES beside them. Phe(3-Me) = Cc1cccc(C[C@H](N)C(=O)O)c1; 2Nal = N[C@@H](Cc1ccc2ccccc2c1)C(=O)O; βAsp = O=C(O)[C@H](CC(=O)[*:2])N[*:1]; Ala(cPr) = N[C@@H](CC1CC1)C(=O)O; Ahp(2) = CCCCC[C@H](N)C(=O)O; NMeNle = CCCC[C@H](NC)C(=O)O; Tle = CC(C)(C)[C@H](N)C(=O)O; NMeS = CN[C@@H](CO)C(=O)O; NHexGly = CCCCCCNCC(=O)O; Orn = NCCC[C@H](N)C(=O)O; Aun = NCCCCCCCCCCC(=O)O; AEEA = NCCOCCOCC(=O)O
Biological target: T1, mouse VISTA (mVISTA) (Mus musculus, UniProt Q9D659)
T1 construct: expressed in transfected cells; host or cells: Human embryonic kidney 293T cells
T1 sequence (Q9D659 33-308): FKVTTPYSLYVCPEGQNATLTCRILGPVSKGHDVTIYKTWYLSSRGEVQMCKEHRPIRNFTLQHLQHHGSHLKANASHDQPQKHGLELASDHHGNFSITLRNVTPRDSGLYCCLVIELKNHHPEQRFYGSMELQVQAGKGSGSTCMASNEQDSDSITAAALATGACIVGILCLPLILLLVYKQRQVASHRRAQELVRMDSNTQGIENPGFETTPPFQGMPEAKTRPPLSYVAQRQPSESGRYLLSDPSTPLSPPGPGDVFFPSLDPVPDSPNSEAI
Assay: Cell-Based Binding High-Content Assay For mVISTA (HC CBA mVISTA)
Details: cell-based binding high-content assay, mVISTA
Procedure, shortened: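 Read-out: Alexa 647–streptavidin signal imaged on fixed, Hoechst-stained mVISTA-293T cells, with IC50 taken from a four-parameter logistic curve. Compounds competed with 2 nM biotinylated peptide for 30 min at room temperature, tested under both no-wash and wash (1 h compound, media exchange, 1 h) formats.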

[1] = read-out: HC CBA miPr ISTA IC50

SMILES: CCCCCCN1CC(=O)N[C@@H](Cc2ccc(O)cc2)C(=O)N[C@@H](CC2CC2)C(=O)N[C@@H](CC(N)=O)C(=O)N[C@@H](CCCN)C(=O)N(C)[C@@H](CCCC)C(=O)N[C@@H](CCCCC)C(=O)N2CCC[C@H]2C(=O)N[C@@H](C(C)(C)C)C(=O)N[C@@H](CO)C(=O)N[C@H](C(=O)N[C@@H](CC(=O)NCCOCCOCC(=O)N[C@@H](CC(=O)O)C(=O)NCCOCCOCC(=O)NCCCCCCCCCCC(=O)O)C(=O)O)CSCC(=O)N[C@@H](Cc2ccccc2)C(=O)N[C@@H](Cc2ccc(O)cc2)C(=O)N[C@@H](CC(=O)O)C1=O [compound 2062] ({CH2CO}-FYD[NHexGly]Y[Ala(cPr)]N[Orn][NMeNle][Ahp(2)]P[Tle]SC[βAsp][AEEA]D[AEEA][Aun]-OH; thioether N-14)
- IC50 [1]: 49.2 nM

SMILES: CCCCCCN1CC(=O)N[C@@H](Cc2ccc(O)cc2)C(=O)N[C@@H](CC(C)C)C(=O)N[C@@H](CC(=O)O)C(=O)N[C@@H](CCCNC(=N)N)C(=O)N(C)[C@@H](CO)C(=O)N[C@@H](CCCCC)C(=O)N2CCC[C@H]2C(=O)N[C@@H](C(C)(C)C)C(=O)N[C@@H](CC(N)=O)C(=O)N[C@H](C(=O)N[C@@H](CC(=O)NCCOCCOCC(=O)N[C@@H](CC(=O)O)C(=O)NCCOCCOCC(=O)NCCCCCCCCCCC(=O)O)C(=O)O)CSCC(=O)N[C@@H](Cc2ccccc2)C(=O)N[C@@H](Cc2c[nH]c3ccccc23)C(=O)N[C@@H](CC(=O)O)C1=O [compound 2066] ({CH2CO}-FWD[NHexGly]YLDR[NMeS][Ahp(2)]P[Tle]NC[βAsp][AEEA]D[AEEA][Aun]-OH; thioether N-14)
- IC50 [1]: 35.3 nM

SMILES: CCCCCCN1CC(=O)N[C@@H](Cc2ccc(O)cc2)C(=O)N[C@@H](CC(C)C)C(=O)N[C@@H](CC(N)=O)C(=O)N[C@@H](CCCNC(=N)N)C(=O)N(C)[C@@H](CO)C(=O)N[C@@H](CCCCC)C(=O)N2CCC[C@H]2C(=O)N[C@@H](C(C)(C)C)C(=O)N[C@@H](CO)C(=O)N[C@H](C(=O)N[C@@H](CC(=O)NCCOCCOCC(=O)N[C@@H](CC(=O)O)C(=O)NCCOCCOCC(=O)NCCCCCCCCCCC(=O)O)C(=O)O)CSCC(=O)N[C@@H](Cc2ccccc2)C(=O)N[C@@H](Cc2ccc(O)cc2)C(=O)N[C@@H](CC(=O)O)C1=O [compound 2068] ({CH2CO}-FYD[NHexGly]YLNR[NMeS][Ahp(2)]P[Tle]SC[βAsp][AEEA]D[AEEA][Aun]-OH; thioether N-14)
- IC50 (read-out: HC CBA miPrISTA IC50): 29.9 nM

SMILES: CCCCCCN1CC(=O)N[C@@H](Cc2ccc(O)cc2)C(=O)N[C@@H](CC(C)C)C(=O)N[C@@H](CC(N)=O)C(=O)N[C@@H](CCCNC(=N)N)C(=O)N(C)[C@@H](CO)C(=O)N[C@@H](CCCCC)C(=O)N2CCC[C@H]2C(=O)N[C@@H](C(C)(C)C)C(=O)N[C@@H](CC(=O)O)C(=O)N[C@H](C(=O)N[C@@H](CC(=O)NCCOCCOCC(=O)N[C@@H](CC(=O)O)C(=O)NCCOCCOCC(=O)NCCCCCCCCCCC(=O)O)C(=O)O)CSCC(=O)N[C@@H](Cc2ccccc2)C(=O)N[C@@H](Cc2cccc(C)c2)C(=O)N[C@@H](CC(=O)O)C1=O [compound 2069] ({CH2CO}-F[Phe(3-Me)]D[NHexGly]YLNR[NMeS][Ahp(2)]P[Tle]DC[βAsp][AEEA]D[AEEA][Aun]-OH; thioether N-14)
- IC50 (read-out: HC CBA miPrISTA IC50): 45 nM

SMILES: CCCCCCN1CC(=O)N[C@@H](Cc2ccc(O)cc2)C(=O)N[C@@H](CC(C)C)C(=O)N[C@@H](CC(N)=O)C(=O)N[C@@H](CCCNC(=N)N)C(=O)N(C)[C@@H](CO)C(=O)N[C@@H](CCCCC)C(=O)N2CCC[C@H]2C(=O)N[C@@H](C(C)(C)C)C(=O)N[C@@H](CC(=O)O)C(=O)N[C@H](C(=O)N[C@@H](CC(=O)NCCOCCOCC(=O)N[C@@H](CC(=O)O)C(=O)NCCOCCOCC(=O)NCCCCCCCCCCC(=O)O)C(=O)O)CSCC(=O)N[C@@H](Cc2ccc3ccccc3c2)C(=O)N[C@@H](Cc2ccc(O)cc2)C(=O)N[C@@H](CC(=O)O)C1=O [compound 2070] ({CH2CO}-[2Nal]YD[NHexGly]YLNR[NMeS][Ahp(2)]P[Tle]DC[βAsp][AEEA]D[AEEA][Aun]-OH; thioether N-14)
- IC50 (read-out: HC CBA miPrISTA IC50): 41.6 nM

SMILES: CCCCCCN1CC(=O)N[C@@H](Cc2ccc(O)cc2)C(=O)N[C@@H](CC(C)C)C(=O)N[C@@H](CC(N)=O)C(=O)N[C@@H](CCCNC(=N)N)C(=O)N(C)[C@@H](CO)C(=O)N[C@@H](CCCCC)C(=O)N2CCC[C@H]2C(=O)N[C@@H](C(C)(C)C)C(=O)N[C@@H](CC(=O)O)C(=O)N[C@H](C(=O)N[C@@H](CC(=O)NCCOCCOCC(=O)N[C@@H](CC(=O)O)C(=O)NCCOCCOCC(=O)NCCCCCCCCCCC(=O)O)C(=O)O)CSCC(=O)N[C@@H](Cc2cccc(C)c2)C(=O)N[C@@H](Cc2ccc(O)cc2)C(=O)N[C@@H](CC(=O)O)C1=O [compound 2071] ({CH2CO}-[Phe(3-Me)]YD[NHexGly]YLNR[NMeS][Ahp(2)]P[Tle]DC[βAsp][AEEA]D[AEEA][Aun]-OH; thioether N-14)
- IC50 (read-out: HC CBA miPrISTA IC50): 27.8 nM

SMILES: CCCCCCN1CC(=O)N[C@@H](Cc2ccc(O)cc2)C(=O)N[C@@H](CC(C)C)C(=O)N[C@@H](CC(N)=O)C(=O)N[C@@H](CCCN)C(=O)N(C)[C@@H](CCCC)C(=O)N[C@@H](CCCCC)C(=O)N2CCC[C@H]2C(=O)N[C@@H](C(C)(C)C)C(=O)N[C@@H](C(C)C)C(=O)N[C@H](C(=O)N[C@@H](CC(=O)NCCOCCOCC(=O)N[C@@H](CC(=O)O)C(=O)NCCOCCOCC(=O)NCCCCCCCCCCC(=O)O)C(=O)O)CSCC(=O)N[C@@H](Cc2ccccc2)C(=O)N[C@@H](Cc2cccc(C)c2)C(=O)N[C@@H](CC(=O)O)C1=O [compound 2072] ({CH2CO}-F[Phe(3-Me)]D[NHexGly]YLN[Orn][NMeNle][Ahp(2)]P[Tle]VC[βAsp][AEEA]D[AEEA][Aun]-OH; thioether N-14)
- IC50 (read-out: HC CBA miPrISTA IC50): 21.1 nM

SMILES: CCCCCCN1CC(=O)N[C@@H](Cc2ccc(O)cc2)C(=O)N[C@@H](CC(C)C)C(=O)N[C@@H](CC(N)=O)C(=O)N[C@@H](CCCNC(=N)N)C(=O)N(C)[C@@H](CCCC)C(=O)N[C@@H](CCCCC)C(=O)N2CCC[C@H]2C(=O)N[C@@H](C(C)(C)C)C(=O)N[C@@H](C(C)C)C(=O)N[C@H](C(=O)N[C@@H](CC(=O)NCCOCCOCC(=O)N[C@@H](CC(=O)O)C(=O)NCCOCCOCC(=O)NCCCCCCCCCCC(=O)O)C(=O)O)CSCC(=O)N[C@@H](Cc2ccccc2)C(=O)N[C@@H](Cc2cccc(C)c2)C(=O)N[C@@H](CC(=O)O)C1=O [compound 2073] ({CH2CO}-F[Phe(3-Me)]D[NHexGly]YLNR[NMeNle][Ahp(2)]P[Tle]VC[βAsp][AEEA]D[AEEA][Aun]-OH; thioether N-14)
- IC50 (read-out: HC CBA miPrISTA IC50): 33.4 nM

SMILES: CCCCCCN1CC(=O)N[C@@H](Cc2ccc(O)cc2)C(=O)N[C@@H](CC(C)C)C(=O)N[C@@H](CC(N)=O)C(=O)N[C@@H](CCCN)C(=O)N(C)[C@@H](CCCC)C(=O)N[C@@H](CCCCC)C(=O)N2CCC[C@H]2C(=O)N[C@@H](C(C)(C)C)C(=O)N[C@@H](CC(=O)O)C(=O)N[C@H](C(=O)N[C@@H](CC(=O)NCCOCCOCC(=O)N[C@@H](CC(=O)O)C(=O)NCCOCCOCC(=O)NCCCCCCCCCCC(=O)O)C(=O)O)CSCC(=O)N[C@@H](Cc2ccccc2)C(=O)N[C@@H](Cc2cccc(C)c2)C(=O)N[C@@H](CC(=O)O)C1=O [compound 2074] ({CH2CO}-F[Phe(3-Me)]D[NHexGly]YLN[Orn][NMeNle][Ahp(2)]P[Tle]DC[βAsp][AEEA]D[AEEA][Aun]-OH; thioether N-14)
- IC50 (read-out: HC CBA miPrISTA IC50): 40 nM

SMILES: CCCCCCN1CC(=O)N[C@@H](Cc2ccc(O)cc2)C(=O)N[C@@H](CC(C)C)C(=O)N[C@@H](CC(N)=O)C(=O)N[C@@H](CCCNC(=N)N)C(=O)N(C)[C@@H](CCCC)C(=O)N[C@@H](CCCCC)C(=O)N2CCC[C@H]2C(=O)N[C@@H](C(C)(C)C)C(=O)N[C@@H](CC(=O)O)C(=O)N[C@H](C(=O)N[C@@H](CC(=O)NCCOCCOCC(=O)N[C@@H](CC(=O)O)C(=O)NCCOCCOCC(=O)NCCCCCCCCCCC(=O)O)C(=O)O)CSCC(=O)N[C@@H](Cc2ccccc2)C(=O)N[C@@H](Cc2cccc(C)c2)C(=O)N[C@@H](CC(=O)O)C1=O [compound 2075] ({CH2CO}-F[Phe(3-Me)]D[NHexGly]YLNR[NMeNle][Ahp(2)]P[Tle]DC[βAsp][AEEA]D[AEEA][Aun]-OH; thioether N-14)
- IC50 (read-out: HC CBA miPrISTA IC50): 24.1 nM

SMILES: CCCCCCN1CC(=O)N[C@@H](Cc2ccc(O)cc2)C(=O)N[C@@H](CC(C)C)C(=O)N[C@@H](CC(N)=O)C(=O)N[C@@H](CCCNC(=N)N)C(=O)N(C)[C@@H](CCCC)C(=O)N[C@@H](CCCCC)C(=O)N2CCC[C@H]2C(=O)N[C@@H](C(C)(C)C)C(=O)N[C@@H](CO)C(=O)N[C@H](C(=O)N[C@@H](CC(=O)NCCOCCOCC(=O)N[C@@H](CC(=O)O)C(=O)NCCOCCOCC(=O)NCCCCCCCCCCC(=O)O)C(=O)O)CSCC(=O)N[C@@H](Cc2ccccc2)C(=O)N[C@@H](Cc2cccc(C)c2)C(=O)N[C@@H](CC(=O)O)C1=O [compound 2076] ({CH2CO}-F[Phe(3-Me)]D[NHexGly]YLNR[NMeNle][Ahp(2)]P[Tle]SC[βAsp][AEEA]D[AEEA][Aun]-OH; thioether N-14)
- IC50 (read-out: HC CBA miPrISTA IC50): 38.1 nM

SMILES: CCCCCCN1CC(=O)N[C@@H](Cc2ccc(O)cc2)C(=O)N[C@@H](CC(C)C)C(=O)N[C@@H](CC(N)=O)C(=O)N[C@@H](CCCN)C(=O)N(C)[C@@H](CCCC)C(=O)N[C@@H](CCCCC)C(=O)N2CCC[C@H]2C(=O)N[C@@H](C(C)(C)C)C(=O)N[C@@H](CO)C(=O)N[C@H](C(=O)N[C@@H](CC(=O)NCCOCCOCC(=O)N[C@@H](CC(=O)O)C(=O)NCCOCCOCC(=O)NCCCCCCCCCCC(=O)O)C(=O)O)CSCC(=O)N[C@@H](Cc2ccccc2)C(=O)N[C@@H](Cc2cccc(C)c2)C(=O)N[C@@H](CC(=O)O)C1=O [compound 2077] ({CH2CO}-F[Phe(3-Me)]D[NHexGly]YLN[Orn][NMeNle][Ahp(2)]P[Tle]SC[βAsp][AEEA]D[AEEA][Aun]-OH; thioether N-14)
- IC50 (read-out: HC CBA miPrISTA IC50): 33.5 nM

From US20240218022A1, “ANTI-VISTA MACROCYCLIC PEPTIDES AND COMPOSITIONS” (BRISTOL-MYERS SQUIBB COMPANY, priority 2022, published 2024)
